In the assay the test system is mt-Keima HEK 293T cells. Kind of assay: In vitro activation of mitophagy in mt-Keima 293T cells. To be noted: 10 μM, 6 hours. Format: cell-based, human. The protocol: The specific method was as follows:
293T cells were cultured and passaged in the normal way, and inoculated in a 24-well plate, with 0.5 mL inoculated in each well. The cell density was 5×10^4 cells/mL, and a total of 2.5×10^4 cells were inoculated. Before inoculation, the cells in the centrifuge tube were pipetted evenly to ensure that the cell density at the beginning and at the end was consistent. After standing for 5-10 minutes, the plate was gently placed in the incubator. After overnight incubation, the original complete medium was removed, and 0.3 mL of a complete medium solution containing 1.5×10^5 TU lentiviruses was added to each well. After incubation at 37° C. for 8 hours, 200 μL of the complete medium was added to each well. After 24 hours of transfection, the medium was replaced until the cell density reached 80-90%, and the cells were digested and passaged a T25 flask. […] The successfully transfected cells were screened using a complete medium containing 0.5 μg/mL of a puromycin hydrochloride solution, and maintained with 0.25 μg/mL of the solution.
The confocal dishes were inoculated with 1 mL per dish, with a cell density of 2×10^5 cells/mL. After standing for 5-10 minutes, the dishes were gently placed in the incubator. When the cells grew to 30-40%, the drug was administered. After treating mt-Keima cells with 10 μM different iridoid monomer ingredients from the male flowers of Eucommia ulmoides Oliver or 10 μM CCCP for 6 hours, the medium was replaced with a fresh complete medium, and then live-cell confocal observation was performed directly. Confocal parameters: the excitation wavelengths were 440 nm and 596 nm each, and the emission wavelength was 620 nm, observed by a 40× water immersion objective.

Data on five molecules can be found in patent publication US20260021152A1, “USE OF MALE FLOWER EXTRACT OF EUCOMMIA ULMOIDES OLIVER IN PREPARATION OF FOOD OR MEDICAMENT FOR RESISTING MUSCLE AGING” (ZHEJIANG UNIVERSITY, priority 2022, published 2026).

Consider `CC(=O)OCC1=C[C@@H]2OC(=O)C3=CO[C@@H](O[C@@H]4O[C@H](CO)[C@@H](O)[C@H](O)[C@H]4O)[C@H]1[C@@H]32` [asperuloside], for which the mitophagy activation entry was “had mitophagy-activating activity”. Moreover, the “comparison of the average fluorescence density ratio” value (same concentration) is recorded as “better than that of the other three monomer ingredients”.

With `OCC1=C[C@@H](O)[C@@H]2C=CO[C@@H](O[C@@H]3O[C@H](CO)[C@@H](O)[C@H](O)[C@H]3O)[C@H]12` [aucubin], the mitophagy activation result is reported as “have mitophagy-activating activity”.

For the molecule `COC(=O)C1=CO[C@@H](O[C@@H]2O[C@H](CO)[C@@H](O)[C@H](O)[C@H]2O)[C@@H]2C(CO)=CC[C@H]12` [geniposide], the mitophagy activation result was “have mitophagy-activating activity”.

With `O=C(O)C1=CO[C@@H](O[C@@H]2O[C@H](CO)[C@@H](O)[C@H](O)[C@H]2O)[C@@H]2C(CO)=CC[C@H]12` [geniposidic acid], the mitophagy activation result is reported as “have mitophagy-activating activity”.

Regarding “carbonyl cyanide ester-3-chlorophenylhydrazone [CCCP]”, the mitophagy activation result is reported as “significantly induced the occurrence of mitophagy”.
